Measured values published in US20050277639A1, “2-Pyridinyl[7-(substituted-pyridin-4-yl)pyrazolo[1,5-a]pyrimidin-3-yl]methanones” (priority 2004, published 2005).

Biological target: benzodiazepine receptor (Rattus norvegicus, UniProt P18508+P62813)
Experiment: Competition radioligand binding assay with [3H]Ro 15-1788 in washed cerebellar membranes
Conditions: [3H]Ro 15-1788 binding; comparison with parent compound ocinaplon

## O=C(c1ccccn1)c1cnn2c(-c3cc(Br)nc(Br)c3)ccnc12 [2,6-dibromo, 2-Pyridinyl[7-(2,6-dibromopyridin-4-yl)pyrazolo[1,5-a]pyrimidin-3-yl]methanone]
  affinity for the benzodiazepine receptor compared with ocinaplon: substantially lower affinity
